#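 Assay format: 96-well plates, 48-hour exposure. At the GI50, growth is halved. TGI is the concentration that stops growth completely.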
# Key:
# Test in all cases: NCI anticancer screen, dose series, 48 h
# [1] = test system: LOX IMVI melanoma
# [2] = test system: ACHN renal
# [3] = test system: MCF7 breast
# [4] = test system: SF-268 CNS
# [5] = test system: SN12C renal
# [6] = test system: SR leukemia
# [7] = test system: SK-OV-3 ovarian
# [8] = test system: NCI-H522 lung
# [9] = test system: MDA-MB-435
# [10] = test system: A549 NSCLC
SMILES,GI50 [1],TGI [1],GI50 [2],TGI [2],GI50 [3],TGI [3],GI50 [4],TGI [4],GI50 [5],TGI [5],GI50 [6],TGI [6],GI50 [7],TGI [7],GI50 [8],TGI [8],GI50 [9],TGI [9],GI50 [10],TGI [10]
N#Cc1cccc(/C=C(/C(=O)c2ccccc2)c2ccccc2)c1,2.89 µM,10.2 µM,2.47 µM,5.76 µM,3.85 µM,15.9 µM,4.3 µM,17.2 µM,3.85 µM,25.9 µM,2.94 µM,> 100 µM,5.53 µM,20.8 µM,2.35 µM,6.95 µM,3 µM,11 µM,10.8 µM,47.6 µM
CCOC(=O)Cn1c(C)c(/C=N/NC(=O)c2cc3c(ccc4ccccc43)o2)c2ccccc21,0.537 µM,2.78 µM,0.926 µM,3.21 µM,0.31 µM,4.85 µM,1.03 µM,,0.707 µM,3.85 µM,0.153 µM,> 21.8 µM,0.804 µM,9.44 µM,0.399 µM,6.93 µM,0.0474 µM,0.251 µM,0.627 µM,5.85 µM
CCOC(=O)c1ccc(Nc2sc(C(=O)c3cccc([N+](=O)[O-])c3)c(N)c2C#N)cc1,0.148 µM,15.4 µM,0.0976 µM,> 44.2 µM,0.102 µM,13.2 µM,0.198 µM,21 µM,0.497 µM,> 46.7 µM,0.034 µM,4.71 µM,0.181 µM,18.6 µM,0.0277 µM,0.852 µM,0.0309 µM,0.264 µM,0.23 µM,
Nc1ccn(C2CC(O)C(CO)O2)c(=O)n1 (centres undefined),> 5000 µM,> 5000 µM,> 5000 µM,> 5000 µM,> 5000 µM,> 5000 µM,> 5000 µM,> 5000 µM,> 5000 µM,> 5000 µM,> 5000 µM,> 5000 µM,> 5000 µM,> 5000 µM,> 5000 µM,> 5000 µM,> 5000 µM,> 5000 µM,> 5000 µM,> 5000 µM
C#C[C@@]1(O)[C@@H](CO)O[C@@H](n2ccc3c(N)ncnc32)[C@@H]1O,0.667 µM,2.05 µM,0.56 µM,4.48 µM,0.239 µM,5.67 µM,2.33 µM,26.1 µM,0.798 µM,3.91 µM,0.817 µM,> 100 µM,1.07 µM,5.24 µM,0.37 µM,3.82 µM,1.48 µM,3.49 µM,1.31 µM,> 100 µM
C/C1=C\C/C=C(\C)[C@H]2CC(CC/C(C)=C/CC1)[C@@](C)(CO)O2,23.3 µM,54 µM,> 100 µM,> 100 µM,26.7 µM,77.7 µM,80.6 µM,> 100 µM,16.3 µM,> 100 µM,14.6 µM,43.8 µM,> 100 µM,> 100 µM,23.3 µM,> 100 µM,> 100 µM,> 100 µM,> 100 µM,> 100 µM
NC(CSc1nc2ccccn2c1[N+](=O)[O-])C(=O)O (centres undefined),,,,> 100 µM,,> 100 µM,,> 100 µM,,> 100 µM,,> 100 µM,,> 100 µM,,> 100 µM,,> 100 µM,,> 100 µM
O=C(Nc1ccccc1)NS(=O)(=O)c1ccc(N2N=C3c4ccccc4CC3C2c2ccccn2)cc1 (centres undefined),15.4 µM,34.2 µM,23.6 µM,68.8 µM,27 µM,> 100 µM,62.1 µM,> 100 µM,30.4 µM,> 100 µM,,,> 100 µM,> 100 µM,17.7 µM,58.3 µM,21.4 µM,54 µM,29.2 µM,> 100 µM
O=C1c2cc3c(cc2[C@@H]2[C@H]1c1ccc([N+](=O)[O-])cc1C(=O)N2CCCCl)OCO3,< 0.01 µM,< 0.01 µM,< 0.01 µM,< 0.01 µM,< 0.01 µM,,< 0.01 µM,,< 0.01 µM,,,,< 0.027 µM,,< 0.01 µM,9.64 µM,< 0.01 µM,< 0.0422 µM,< 0.01 µM,> 100 µM
Cc1ncc(C(=O)Nc2ccc(CN3CCN(C)CC3)c(C(F)(F)F)c2)cc1C#Cc1cnc(N)c2ncccc12,,,0.063 µM,1.65 µM,1.61 µM,4.36 µM,0.417 µM,3 µM,0.221 µM,1.91 µM,0.472 µM,,0.341 µM,7.2 µM,1.05 µM,3.96 µM,0.0419 µM,1.58 µM,0.391 µM,2.69 µM
O=Cc1ccc(Oc2c3ccccc3nc3occc23)cc1,,,,,13.8 µM,32.2 µM,15.5 µM,40.8 µM,7.73 µM,24.2 µM,16 µM,44.7 µM,21.6 µM,57 µM,49.5 µM,> 100 µM,6.49 µM,24.7 µM,22.4 µM,50.5 µM
OCCNc1ncnc2c1ncn2C1OC(CO)C(O)C1O (centres undefined),,> 100 µM,,> 100 µM,,> 100 µM,,> 100 µM,,> 100 µM,,,,> 100 µM,,> 100 µM,,> 100 µM,,> 100 µM
CC[C@H](C)[C@H](NC(=O)Nc1ccccc1)C(=O)N(C)[C@H](C[C@@H](OC(C)=O)c1nc(C(=O)N[C@@H](Cc2ccccc2)C[C@H](C)C(=O)OC)cs1)C(C)C,4.76 µM,> 100 µM,8.09 µM,> 100 µM,1.27 µM,> 100 µM,5.13 µM,> 100 µM,8.31 µM,> 100 µM,,,5.13 µM,> 100 µM,1.5 µM,21.1 µM,0.416 µM,1.86 µM,7.49 µM,> 100 µM

# From PubChem BioAssay (NCI)
